Counter-ions that a name gives are not always drawn.
Tests used:
[1] = molecular target: T1, Human vitronectin receptor (αv β3) (Homo sapiens, UniProt P05106+P06756); assay: Vitronectin adhesion assay (solid phase receptor assay, biotinylated vitronectin competition); assay type: binding; conditions: inhibition of 50% of the maximum binding of biotinylated vitronectin; 1 nM labeled ligand, 2 hours, room temperature, highest concentration of test compound 1.0×10^-4 M; read-out: AvB3 IC50
T1 construct: Human vitronectin receptor(αv β3) was purified from human placenta; from tissue; host or cells: human placenta
Summary of the method: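 Placenta-purified αvβ3 coated at 1.0 μg/mL in TBS (1 mM Ca, Mg, Mn, pH 7.4), overnight 4 °C. Compound competed 2 h at RT with 1 nM biotinylated vitronectin (final; top compound 1.0×10^-4 M); bound ligand detected by HRP anti-biotin/OPD at 450 nm, normalized to no-competitor controls, four-parameter fit.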

[2] = molecular target: T2, Human fibrinogen receptor (αIIb β3) (Homo sapiens, UniProt P05106+P08514); assay: Purified IIb/IIIa receptor assay (solid phase receptor assay, biotinylated vitronectin competition); conditions: inhibition of 50% of the maximum binding of biotinylated vitronectin; 1 nM labeled ligand, 2 hours, room temperature, highest concentration of test compound 1.0×10^-4 M
T2 construct: Human fibrinogen receptor (αIIb β3) was purified from outdated platelets; from tissue; host or cells: outdated human platelets
Summary of the method: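 Platelet-purified αIIbβ3 was coated at 100 ng/well in TBS with 1 mM Ca²⁺/Mg²⁺/Mn²⁺, pH 7.4, then BSA-blocked. Compound (up to 1.0×10⁻⁴ M final) competed with 1 nM biotinylated vitronectin for 2 h at room temperature. Bound ligand was detected with HRP anti-biotin at A450, normalized to maximum binding, and curve-fitted.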

IC50 [1]: 23.2 nM | IC50 [2]: 706 nM
Compound: N=C(N)Nc1cccc(S(=O)(=O)Nc2cccc(C(CC(=O)O)c3ccccc3O)c2)c1 (stereo not drawn) [Example 102, Sodium β-[3-[[[3[(aminoiminomethyl)amino]phenyl]-sulfonyl]amino]phenyl]-2-hydroxybenzenepropanoate, Trifluoroacetate Salt]
